Publication PMC7275090, “Mode of action of teixobactins in cellular membranes” (Nature Communications, 2020)
Bridge positions count the residues as written; N and C are the ends. Square brackets hold non-standard residues; d marks the D form. Ends that are not written are not given here. d(aIle) = CC[C@H](C)[C@@H](N)C(=O)O; dNMeF = CN[C@H](Cc1ccccc1)C(=O)O

Tests used:
[1] = Fluorescence microscopy of GUVs doped with NBD-labelled Lipid II (Lipid II clustering); conditions: DOPC GUVs, 1 μM peptide, 4 h
Experimental: GUVs were prepared using the electroformation method. The GUV cell is a self-assembled system which consists of a 5 mm-thick Teflon plate which is aligned with two titanium electrodes in a closed Teflon chamber. 1.5 μL of 0.5 mM DOPC doped with NBD-labelled Lipid II (0.1 mol%) were brushed on the electrodes. Next, the chamber was filled with 350 μL 0.1 M sucrose solution; the electrodes dipped in and then connected to a power supply which generated a sine wave of voltage 2.5 V at a frequency of 10 Hz for 90 min. Each microscopy slide (μ-slide 8 well, Ibidi) was covered with 350 μL BSA solution (1 mg/mL). To detach the GUVs from the electrodes the power supply was changed to square wave of voltage 2 V at a frequency of 2 Hz for 15 min. The slides were immersed in 300 μL 0.1 mM glucose solution to which 80 μL of GUVs were added. These were incubated for 4 h with 1 μM [R4L10]-teixobactin and observed by confocal microscopy. Anionic GUVs were prepared using a homemade electroformation setup with ITO coverslips (18 × 18 mm, 15–30 Ω, SPI supplies). On both slips, 3 μL of a chloroform–methanol (1:1, vol/vol) solution containing 1 mM of a 3:1 mixture of DOPC:DOPG (mol/mol) and 0.1 mol% NBD-labelled Lipid II was deposited and dried in a vacuum desiccator. With these slips, the electroformation chamber was assembled and filled with 0.1 M sucrose solution. The GUV cell was connected to the power supply and an alternating current applied (1 V, 10 Hz). GUV formation was carried out overnight.
Microscopy: GUVs were imaged using Zeiss LSM 880 with ×63/1.2NA glycerol objective lens. The NBD label appeared green upon excitation by the 488 nm laser. The emission range for detection was 530–545 nm (λem peak = 539 nm). The brightfield images were used for detection and location of the GUVs without a fluorescent signal and also as a control to observe their shape.

[2] = ssNMR signal intensity of Lipid II-bound teixobactin, DOPC vs DOPG liposomes
Text: (§1) SSNMR samples: MLVs were collected by centrifugation (20,000×g) and loaded into ssNMR rotors. For 3.2 mm rotors, we used 800 nmol of antibiotic with unlabelled Lipid II or I, while we used 400 nmol with labelled Lipid II. For 1.3 mm rotors, samples contained 200 nmol of antibiotic for unlabelled Lipid II or I, while we used 100 nmol for labelled Lipid II. For all ssNMR samples, we used 4 mol%/mol Lipid II or I in the MLVs.
H/ppm H/ppm N spinlock duration (ms)
Weaker binding affinity to Lipid II in anionic conditions is a common property of the binding mode of teixobactins.
To validate and generalise our findings, we repeated ssNMR studies with a second analogue, [L10]-teixobactin, which is close to natural teixobactin. Both [L10]- teixobactin and [R4L10]-teixobactin show similar behaviour in anionic membranes, i.e., sharp drops in ssNMR sensitivity and marked increase in mobility in the complex. We note that only the difference between natural teixobactin and [Leu10]- teixobactin is the substitution of enduracididine10 by leucine10. We also note that the substitution by enduracididine10 by cationic or hydrophobic residues is tolerated […]
a) 1H-detected 1D NH spectra of Lipid II-bound [Leu10]-teixobactin measured in DOPC (cyan) and DOPG (red) liposomes. The signal-to-noise ratio is more than six times lower in anionic membranes. Both spectra were acquired with fully packed 1.3 mm rotors and 10240 scans each. b)15N T1rho signal decay curves of the bulk signal of Lipid II-bound [Leu10]- teixobactin in DOPC (cyan) and (DOPG (red) membranes. Relaxation is much faster […]
c) Corresponding 15N R1rho rates of Lipid II-bound [Leu10]-teixobactin in DOPC (cyan) and DOPG (red) membranes. The error bars show the standard error of the fit. Source data are provided as a Source Data file.
The spectra were acquired at 700 MHz with 60 kHz magic angle spinning (MAS).

[3] = ssNMR 15N T1rho relaxation (dynamics of bound teixobactin), Lys-Lipid II; conditions: [L10] analogue, 60 kHz MAS
Experimental: Relaxation studies: ^1H-detected ^15N T1rho relaxation experiments were carried out at 950 and 700 MHz magnetic field, respectively, using 60 kHz MAS[51]. The ^15N transverse magnetization decay was probed with a ^15N spinlock field of 17.5 kHz. For the bulk, we measured the intensity of the most intense signal at ~8.80 ^1H ppm. T1rho trajectories were fit to single exponentials.
Lipid I or II-doped multi-laminar vesicle preparations: DOPC or DOPG lipids were mixed with Lipid I or II in 1:1 MeOH:CHCl3 at the final Lipid I or II molar ratio (0–4 mol%/mol). The mixtures were dried and the lipid films were hydrated by vortexing with 2 mL of a teixobactin solution in 40 mM phosphate, 25 mM NaCl, pH 7.0.
as §1

[4] = vancomycin, unlike teixobactins; cited from earlier work
Text: In summary, a picture of a balanced binding mode emerges in which teixobactins use the conserved pyrophosphate as firm, specific anchor, whereas the interaction with the sugar-pentapeptide headgroup is more loosely defined[28],[29]. This behaviour enables teixobactins to recognize different cognate cell-wall building blocks and wall teichoic acids precursors, such as Lipid I, Lipid II, Lipid III, and undecaprenyl pyrophosphate that all have the PPi moiety in common but feature different headgroups. The capacity to recognize several conserved precursor molecules both maximizes the number of ...

[5] = target: the molecule itself; assay: solid-state NMR; 2D 13C13C PARISxy spectra with long magnetization transfer times (50-1000 ms), distance threshold ~8 Å; 13C,15N-labelled [R4L10]-teixobactin bound to unlabelled Lipid II (4 mol%) in DOPC membranes; 950 MHz, 15.5 kHz MAS, 270 K

## Leu10-teixobactin [[L10]-teixobactin]
[1]; 0.1 mol% NBD-Lipid II
  Lipid II segregation into clusters on GUVs: segregation of Lipid II into clusters
[1]; brightfield images, cluster sites show slight membrane deformations
  vesicle integrity and morphology after incubation: morphology is maintained
[2]; DOPG vs DOPC, 1H-detected 1D NH spectra, 10240 scans each
  signal-to-noise ratio, times lower in anionic membranes: more than six
[2]; Supplementary Figure 11a, DOPC (reference)
  relative 1D NH signal, DOPC: 100%
[2]; Supplementary Figure 11a, DOPG relative to DOPC
  relative 1D NH signal, DOPG: 15%
[3]; Lys-LII in DOPC (Lys-LII PC)
  Bulk 15N R1rho: 5.29 s⁻¹
  Bulk 15N T1rho: 189.00 ms
[3]; Lys-LII in DOPG (Lys-LII PG)
  Bulk 15N R1rho: 18.49 s⁻¹
  Bulk 15N T1rho: 54.07 ms

## vancomycin
[4]
  ability to bind Lipid II versions with different pentapeptides: unlike vancomycin

B1: [R4L10]-teixobactin (peptide)
peptide: [dNMeF]IS[dR][d(aIle)]IS[dT]ALI
modifications: ester 8-C; also: 13C,15N-labelled at Ile2, Ser3, Ile6, Ser7, Ala9, Leu10
notes: Analogue of teixobactin, a natural undecapeptide from Eleftheria terrae; Cyclic depsipeptide with non-proteinogenic and D-residues; also called D-Arg4-Leu10-teixobactin; source: synthetic peptide (solid-phase synthesis, cyclised, purified by RP-HPLC)
[5]
  binding result: binds
